Source: patent publication US11827628B2, “Compositions and methods for inhibition of the JAK pathway” (Rigel Pharmaceuticals, Inc., priority 2005, dated 2023)
pIC50: −log10 of the molar value. Where two headings read alike, the source gives them in different places.

Assays:
[1] = test system: up-regulation of ICAM-1 (CD54) by IFNγ in U937 human monocytic cells; assay: U937 IFNγ ICAM1 FACS Assay; type: cell-based; conditions: ICAM-1 expression by FACS, read-out: IC50, Example 44
How it was run: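 U937 cells in 10% FCS RPMI were preincubated 30 min at 37 °C with an 8-point, 3-fold compound dilution series in duplicate, then stimulated with IFNγ for 18–24 h. Surface ICAM-1 was stained with APC anti-ICAM-1 and read by flow cytometry as geometric mean on live-gated cells. EC50 was derived.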

[2] = test system: IL-4 stimulated expression of CD23 in human Ramos B cells (JAK-1 and JAK-3); assay: Assay for Ramos B-Cell Line Stimulated with IL-4 (CD23 upregulation, FACS); type: cell-based; conditions: read-out: IC50, Example 41
How it was run: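 Read-out: anti-CD23-PE flow cytometry on Ramos B cells, giving IC50. Cells (5×10^4 per point, RPMI + 5% serum) get compound or DMSO for 1 h at 37 °C, then IL-4 50 units/mL final for 20-24 h.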

[3] = U937 cells stimulated with IFNγ
[4] = Ramos B cells stimulated with IL-4, CD23 expression by FACS
[5] = Homo sapiens, U-937, U937 cells stimulated with IFNγ
[6] = Homo sapiens, Ramos, Ramos B cells stimulated with IL-4, CD23 expression by FACS
[7] = Homo sapiens, Ramos, Ramos B-cell line stimulated with IL-4, CD23 expression by FACS

Row | pIC50 [1, 3] | pIC50 [2, 4] | pIC50 [1, 5] | pIC50 [2, 6] | pIC50 [2, 7] | Structure (SMILES)
1 | 5.27 | 6.49 | – | – | – | Cc1ccc(Nc2ncc(F)c(Nc3ccc(CN4CCS(=O)(=O)CC4)cc3)n2)cc1S(N)(=O)=O [III-111, N2-(3-Aminosulfonyl-4-methylphenyl)-5-fluoro-N4-{4-[(1,1-dioxothiomorpholin-4-yl-)methyl]phenyl}-2,4-pyrimidinediamine]
2 | – | – | 5.53 | 6.65 | – | Cc1cc(Nc2nc(Nc3ccc(S(N)(=O)=O)cc3)ncc2F)cc(C)c1N1CCN(C)CC1 [IX-44, N2-(4-Aminosulfonylphenyl)-N4-[3,5-dimethyl-4-(4-methylpiperazin-1-yl]phenyl)-5-fluoro-2,4-pyrimidinediamine]
3 | – | – | 4.83 | – | 6.79 | CNC(=O)COc1ccc(Nc2nc(Nc3ccc(S(N)(=O)=O)cc3)ncc2C)cc1Cl [Compound I-149, N2-(4-Aminosulfonylphenyl)-N4-(3-chloro-4-methylaminocarbonylmethoxyphenyl)-5-methyl-2,4-pyrimidinediamine]
4 | – | – | 6.47 | – | 7.52 | Cc1ccc(Nc2ncc(F)c(Nc3ccc(CCC#N)c(Cl)c3)n2)cc1S(N)(=O)=O [III-21, N2-(3-Aminosulfonyl-4-methylphenyl)-N4-[3-chloro-4-(2-cyanoethyl)phenyl]-5-fluoro-2,4-pyrimidinediamine]
5 | – | – | 6.01 | – | 6.85 | COc1ccc(Nc2ncc(F)c(Nc3ccc(Cc4ccncc4)cc3)n2)cc1S(N)(=O)=O [III-66, N2-(3-Aminosulfonyl-4-methoxyphenyl)-5-fluoro-N4-[4-(4-pyridinylmethyl)phenyl]-2,4-pyrimidinediamine]
6 | – | – | 5.34 | – | 6.61 | Cc1ccc(Nc2ncc(F)c(Nc3cccc(OC4CCN(C)CC4)c3)n2)cc1S(N)(=O)=O [II-2, N2-(3-Aminosulfonyl-4-methylphenyl)-5-fluoro-N4-{3-[(1-methylpiperidin-4-yl)oxy]phenyl}-2,4-pyrimidinediamine]
7 | – | – | 7.18 | – | 8.30 | Cc1cnc(Nc2cccc(S(N)(=O)=O)c2)nc1Nc1ccc(OCC#N)cc1 [Compound I-58, N2-(3-Aminosulfonylphenyl)-N4-(4-cyanomethoxyphenyl)-5-methyl-2,4-pyrimidinediamine]
8 | – | – | 5.80 | – | 6.87 | NC(=O)OCCc1ccc(Nc2nc(Nc3cccc(S(N)(=O)=O)c3)ncc2F)cc1 [III-54, N4-{4-[2-(Aminocarbonyloxy)ethyl]phenyl}-N2-(3-aminosulfonylphenyl)-5-fluoro-2,4-pyrimidinediamine]
9 | – | – | 6.12 | – | 6.95 | COc1cc(Nc2nc(Nc3cccc(S(N)(=O)=O)c3)ncc2F)ccc1OCC#N [Compound I-46, N2-(3-Aminosulfonylphenyl)-N4-(4-cyanomethoxy-3-methoxyphenyl)-5-fluoro-2,4-pyrimidinediamine]
10 | – | – | 5.48 | – | 7.37 | Cc1cc(Nc2nc(Nc3cccc(S(N)(=O)=O)c3)ncc2F)ccc1CCC#N [III-20, N2-(3-Aminosulfonylphenyl)-N4-[4-(2-cyanoethyl)-3-methylphenyl]-5-fluoro-2,4-pyrimidinediamine]
11 | – | – | 5.86 | 6.46 | – | Cc1cc2ccc(CNc3nc(Nc4cccc(S(N)(=O)=O)c4)ncc3F)cc2[nH]1 [Compound X-3]
12 | – | – | 4.53 | – | 6.41 | Cc1cnc(Nc2ccc(S(N)(=O)=O)cc2)nc1Nc1ccc(OCC(=O)N(C)C)c(F)c1 [Compound I-137, N2-(4-Aminosulfonylphenyl)-N4-(4-dimethylaminocarbonylmethoxy-3-fluorophenyl)-5-methyl-2,4-pyrimidinediamine]
13 | 6.27 | 6.84 | – | – | – | COc1ccc(Nc2ncc(F)c(Nc3ccc(CN4CCSCC4)cc3)n2)cc1S(N)(=O)=O [III-109, N2-(3-Aminosulfonyl-4-methyoxyphenyl)-5-fluoro-N4-(4-thiomorpholinomethylenephenyl)-2,4-pyrimidinediamine]
14 | – | – | 6.11 | – | 7.25 | Cc1ccc(Nc2ncc(F)c(Nc3ccc(CCC#N)c(F)c3)n2)cc1S(N)(=O)=O [III-17, N2-(3-Aminosulfonyl-4-methylphenyl)-5-fluoro-N4-[4-(2-cyanoethyl)-3-fluorophenyl]-2,4-pyrimidinediamine]
15 | – | – | 5.97 | – | 6.65 | Cc1cc(COc2ccc(Nc3nc(Nc4cccc(S(=O)(=O)NCc5oc(=O)oc5C)c4)ncc3F)cc2)no1 [Compound I-247, N2-{3-[(N-5-Methyl-1,3-dioxolene-2-one-4-yl)methylene]aminosulfonylphenyl}-5-fluoro-N4-[4-(5-methylisoxazol-3-yl)methyleneoxyphenyl]-2,4-pyrimidinediamine]
16 | – | – | 5.30 | – | 7.27 | N#CCOc1ccc(Nc2nc(Nc3ccc(S(N)(=O)=O)cc3)ncc2F)cc1F [Compound I-44, N2-(4-Aminosulfonylphenyl)-N4-(4-cyanomethoxy-3-fluorophenyl)-5-fluoro-2,4-pyrimidinediamine]
17 | – | – | 5.49 | – | 6.43 | Cc1ccc(Nc2ncc(C)c(Nc3ccc(OCC(=O)N(C)C)c(F)c3)n2)cc1S(N)(=O)=O [Compound I-139, N2-(3-Aminosulfonyl-4-methylphenyl)-N4-(4-dimethylaminocarbonylmethoxy-3-fluorophenyl)-5-methyl-2,4-pyrimidinediamine]
18 | – | – | 4.56 | – | 6.67 | NC(=O)COc1ccc(Nc2nc(Nc3ccc(S(N)(=O)=O)cc3)ncc2F)cc1Cl [Compound I-97, N4-(4-Aminocarbonylmethoxy-3-chlorophenyl)-N2-(4-aminosulfonylphenyl)-5-fluoro-2,4-pyrimidinediamine]
19 | – | – | 5.77 | – | 7.01 | NS(=O)(=O)c1ccc(Nc2ncc(F)c(Nc3ccc(Cc4ccncc4)cc3)n2)cc1 [III-71, N2-(4-Aminosulfonylphenyl)-5-fluoro-N4-[4-(4-pyridinylmethyl)phenyl]-2,4-pyrimidinediamine]
20 | – | – | 5.44 | – | 6.98 | COc1cc(Nc2nc(Nc3ccc(S(N)(=O)=O)cc3)ncc2F)ccc1OCC#N [Compound I-45, N2-(4-Aminosulfonylphenyl)-N4-(4-cyanomethoxy-3-methoxyphenyl)-5-fluoro-2,4-pyrimidinediamine]
21 | – | – | 4.19 | – | 6.93 | CNC(=O)COc1ccc(Nc2nc(Nc3cccc(S(N)(=O)=O)c3)ncc2C)cc1F [Compound I-155, N2-(3-Aminosulfonylphenyl)-N4-(3-fluoro-4-methylaminocarbonylmethoxyphenyl)-5-methyl-2,4-pyrimidinediamine]
22 | – | – | 5.42 | – | 7.16 | Cc1ccc(Nc2ncc(F)c(Nc3ccc(OCC(N)=O)c(Cl)c3)n2)cc1S(N)(=O)=O [Compound I-99, N4-(4-Aminocarbonylmethoxy-3-chlorophenyl)-N2-(3-aminosulfonyl-4-methylphenyl)-5-fluoro-2,4-pyrimidinediamine]
23 | – | – | 6.04 | – | 6.97 | NS(=O)(=O)c1cccc(Nc2ncc(F)c(Nc3ccc(Oc4cccnc4)cc3)n2)c1 [II-11, N2-(3-Aminosulfonylphenyl)-5-fluoro-N4-[4-(3-pyridyloxy)phenyl]-2,4-pyrimidinediamine]
24 | – | – | 5.79 | – | 6.84 | Cc1ccc(Nc2ncc(F)c(Nc3ccc(OC4CCN(C)CC4)cc3)n2)cc1S(N)(=O)=O [II-7, N2-(3-Aminosulfonyl-4-methylphenyl)-5-fluoro-N4-{4-[(1-methylpiperidin-4-yl)oxy]phenyl}-2,4-pyrimidinediamine]
25 | – | – | 5.57 | – | 6.45 | CN(C)C(=O)COc1ccc(Nc2nc(Nc3cccc(S(N)(=O)=O)c3)ncc2F)cc1Cl [Compound I-132, N2-(3-Aminosulfonylphenyl)-N4-(3-chloro-4-dimethylaminocarbonylmethoxyphenyl)-5-fluoro-2,4-pyrimidinediamine]
26 | – | – | 6.35 | – | 6.98 | NS(=O)(=O)c1cccc(Nc2ncc(F)c(NCCc3ccc(-c4ccncc4)cc3)n2)c1 [III-76, N2-(3-Aminosulfonylphenyl)-5-fluoro-N4-[4-(4-pyridinyl)phenethyl]-2,4-pyrimidinediamine]
27 | – | – | 6.49 | – | 7.15 | Cc1cnc(Nc2ccc(Cl)c(S(N)(=O)=O)c2)nc1Nc1ccc(CCC#N)cc1 [III-12, N2-(3-Aminosulfonyl-4-chlorophenyl)-N4-[4-(2-cyanoethyl)phenyl]-5-methyl-2,4-pyrimidinediamine]
28 | – | – | 6.08 | – | 7.27 | CN(C)C(=O)OCCc1ccc(Nc2nc(Nc3cccc(S(N)(=O)=O)c3)ncc2F)cc1 [III-57, N2-(3-Aminosulfonylphenyl)-N4-{4-[2-(dimethylaminocarbonyloxy)ethyl]phenyl}-5-fluoro-2,4-pyrimidinediamine]
29 | – | – | 7.24 | – | 8.18 | Cc1ccc(Nc2ncc(C)c(Nc3ccc(OCC#N)cc3)n2)cc1S(N)(=O)=O [Compound I-59, N2-(3-Aminosulfonyl-4-methylphenyl)-N4-(4-cyanomethoxyphenyl)-5-methyl-2,4-pyrimidinediamine]
30 | – | – | 6.37 | – | 6.98 | COc1ccc(Nc2ncc(F)c(Nc3ccc(OCC#N)cc3)n2)cc1S(N)(=O)=O [Compound I-56, N2-(3-Aminosulfonyl-4-methoxyphenyl)-N4-(4-cyanomethoxyphenyl)-5-fluoro-2,4-pyrimidinediamine]
